Source: patent US20150065416A1, “NOVEL DRUG COMBINATION” (FAB PHARMA SAS, priority 2013, published 2015)

How the values were obtained:
A. baumannii isolates [1] = assay: Checkerboard testing (compound (I)/antibacterial agent interaction, FIC index); format: cell-based, Acinetobacter baumannii; conditions: Acinetobacter baumannii
Outline: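 Two-fold dilutions of compound (I) alone or combined with amikacin, gentamicin, colistin, meropenem or tobramycin (0.25–2×MIC) were tested against 20 isolates (susceptible, amikacin-, colistin-, meropenem-resistant). Inoculum was ~4-5×10^4 CFU/ml, incubated at 35° C for 16-20 h. Interaction was scored by FIC index: ≤0.5 synergy, >4 antagonism.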

A. baumannii isolates [2] = assay: Time kill study (Example 4); format: cell-based, Acinetobacter baumannii; conditions: for Time to kill 99.9%: alone; for MIC: Acinetobacter baumannii, read-out: MIC
Outline: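 Twelve isolates (three each susceptible, meropenem-, amikacin- or colistin-resistant) exposed to compound (I) combined with amikacin, colistin or meropenem, each agent also alone at 1× and 4× its MIC. CFU/mL counted at 0, 2, 4, 8 and 24 h.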

A. baumannii SAN-94040 = assay: Mouse model of A. baumannii pneumonia, Study 1: survival; format: in vivo, Acinetobacter baumannii
Procedure: The bacterial inoculum was prepared in order to obtain a suspension containing 10^8 CFU/mL of Acinetobacter baumannii in saline.
Experimentations were performed with six-week old female C3H/HeN mice (18-20 g, Breeding Centre JANVIER (Ile saint Genest Mayenne 53)) because of their particular susceptibility to Acinetobacter baumannii and the reproducibility of the results (inbreeding in the breed). Each mouse was individually marked and housed in cages containing five animals/cage under ventilated and controlled (temperature and humidity) atmosphere.
The mice were rendered transiently neutropenic by 2 intra-peritoneal (IP) injections of 150 μL of cyclophosphamide (Endoxan® 150 mg/kg) 4 (D-4) and 3 (D-3) days before the Acinetobacter baumannii inoculation (Day 0). This transient immunosuppression was sufficient to facilitate the development of the A. baumannii pneumonia while allowing the recovery of the neutrophil influx 2 (Day 2) days after inoculation in order to avoid or limit a systemic bacterial dissemination.
Mice were anesthetized by a mixture of oxygen and isoflurane. The bacterial inoculation was performed on Day 0 by intra-tracheal installation using an endotracheal catheter (50 μl of the suspension, thus 5.106 CFU). The positioning of the catheter in the trachea (instead of in the oesophagus) was checked by a “ring test”. The bacterial count in lungs was checked for all study groups by sacrificing one mouse immediately after inoculation.
Survival observations were assessed twice daily, up to 4 days post infection. The survival rates were compared with the Chi-square test or the Fisher exact test as appropriate. The survival curves were compared by the Kaplan-Meier method.
The aim of this experiment was to assess the […], with compound (I) via intra-peritoneal route at 200 mg/kg 3 times daily (every 8 hours) for 1 day alone and in combination with meropenem at 50 mg/kg 3 times daily (every 8 hours) for 1 day or with amikacin at 18 mg/kg 3 times daily (every 8 hours) for 1 day.

[3] = Study 1, 24 h after infection, doses as E210
[4] = Study 1, 48 h after infection, doses as E210
[5] = Study 1, 72 h after infection, doses as E210
[6] = Study 1, 96 h after infection, doses as E210

C[C@@H](O)[C@H]1C(=O)N2C(C(=O)O)=C(S[C@@H]3CN[C@H](C(=O)N(C)C)C3)[C@H](C)[C@H]12 [meropenem]
MIC (A. baumannii isolates [1]; A. baumannii 441142, colistin-resistant, read-out: MIC): 64 µg/mL
MIC (A. baumannii isolates [1]; A. baumannii 441160, colistin-resistant, read-out: MIC): 64 µg/mL
MIC (A. baumannii isolates [1]; A. baumannii 463996, colistin-resistant): 0.125 µg/mL
MIC (A. baumannii isolates [1]; A. baumannii 466936, colistin-resistant): 128 µg/mL
MIC (A. baumannii isolates [1]; A. baumannii 517303, colistin-resistant, read-out: MIC): 1 µg/mL
MIC (A. baumannii isolates [1]; A. baumannii 618649, meropenem-resistant, read-out: MIC): 64 µg/mL
MIC (A. baumannii isolates [1]; A. baumannii 625917, meropenem-resistant, read-out: MIC): 64 µg/mL
MIC (A. baumannii isolates [1]; A. baumannii 628760, susceptible, read-out: MIC): 0.25 µg/mL
MIC (A. baumannii isolates [1]; A. baumannii 637723, amikacin-resistant, read-out: MIC): 1 µg/mL
MIC (A. baumannii isolates [1]; A. baumannii 638115, amikacin-resistant, read-out: MIC): 2 µg/mL
MIC (A. baumannii isolates [1]; A. baumannii 650216, meropenem-resistant, read-out: MIC): 64 µg/mL
MIC (A. baumannii isolates [1]; A. baumannii 655932, amikacin-resistant, read-out: MIC): 16 µg/mL
MIC (A. baumannii isolates [1]; A. baumannii 661954, amikacin-resistant, read-out: MIC): 1 µg/mL
MIC (A. baumannii isolates [1]; A. baumannii 667848, meropenem-resistant, read-out: MIC): 32 µg/mL
MIC (A. baumannii isolates [1]; A. baumannii 668116, susceptible, read-out: MIC): 0.5 µg/mL
MIC (A. baumannii isolates [1]; A. baumannii 668239, amikacin-resistant, read-out: MIC): 16 µg/mL
MIC (A. baumannii isolates [1]; A. baumannii 670348, susceptible, read-out: MIC): 0.5 µg/mL
MIC (A. baumannii isolates [1]; A. baumannii 671050, meropenem-resistant, read-out: MIC): 32 µg/mL
MIC (A. baumannii isolates [1]; A. baumannii 672190, susceptible, read-out: MIC): 0.5 µg/mL
MIC (A. baumannii isolates [1]; A. baumannii 674340, susceptible, read-out: MIC): 0.5 µg/mL
Time to kill 99.9% (A. baumannii isolates [2]; AMK-R-1, 1xMIC): 5.2 h
Time to kill 99.9% (A. baumannii isolates [2]; AMK-R-1, 4xMIC): 3.2 h
Time to kill 99.9% (A. baumannii isolates [2]; AMK-R-2, 1xMIC): >24 h
Time to kill 99.9% (A. baumannii isolates [2]; AMK-R-2, 4xMIC): 6.1 h
Time to kill 99.9% (A. baumannii isolates [2]; AMK-R-3, 1xMIC): 3.6 h
Time to kill 99.9% (A. baumannii isolates [2]; AMK-R-3, 4xMIC): 1.8 h
MIC (A. baumannii isolates [2]; isolate AMK-R-1): 4 µg/mL
MIC (A. baumannii isolates [2]; isolate AMK-R-2): 16 µg/mL
MIC (A. baumannii isolates [2]; isolate AMK-R-3): 16 µg/mL
MIC (A. baumannii isolates [2]; isolate COL-R-1): 64 µg/mL
MIC (A. baumannii isolates [2]; isolate COL-R-2): 0.25 µg/mL
MIC (A. baumannii isolates [2]; isolate COL-R-3): 16 µg/mL
Time to kill 99.9% (A. baumannii isolates [2]; COL-R-1, 1xMIC): 3.6 h
Time to kill 99.9% (A. baumannii isolates [2]; COL-R-1, 4xMIC): 3.6 h
Time to kill 99.9% (A. baumannii isolates [2]; COL-R-2, 1xMIC): >24 h
Time to kill 99.9% (A. baumannii isolates [2]; COL-R-2, 4xMIC): 5.8 h
Time to kill 99.9% (A. baumannii isolates [2]; COL-R-3, 1xMIC): >24 h
Time to kill 99.9% (A. baumannii isolates [2]; COL-R-3, 4xMIC): 3.2 h
effect in time-kill studies when tested alone (A. baumannii isolates [2]; alone at 1× or 4×MIC): generally bactericidal
survivors (%) (A. baumannii SAN-94040; Study 1, 0 h after infection, doses as E210): 100%
No. of survivors (A. baumannii SAN-94040; [3]): 14
survivors (%) (A. baumannii SAN-94040; [3]): 100%
No. of survivors (A. baumannii SAN-94040; [4]): 11
survivors (%) (A. baumannii SAN-94040; [4]): 79%
No. of survivors (A. baumannii SAN-94040; [5]): 6
survivors (%) (A. baumannii SAN-94040; [5]): 43%
No. of survivors (A. baumannii SAN-94040; [6]): 6
survivors (%) (A. baumannii SAN-94040; [6]): 43%
No. of survivors (A. baumannii SAN-94040; Study 1, C3H/HeN mice, 0 h after SAN-94040 infection, compound (I) 200 mg/kg, amikacin 18 mg/kg, meropenem 50 mg/kg q 8 h I.P.): 14
efficacy compared to the control group (A. baumannii SAN-94040; Study 1, survival): significant efficacy
